From US20090233326A1, “METHOD FOR INDUCTION OF THE DIFFERENTIATION OF VISCERAL FAT CELL” (priority 2006, published 2009) come the findings set out here.

Assay type in all cases: cell-based, rat
For test [1], the system named is adiponectin. The experiment in a line: Adiponectin content of the culture medium (ELISA). The protocol:
The conventionally used dexamethasone-based differentiation induction system was first evaluated. 2.5 μM dexamethasone and 10 μg/mL insulin or 10 μg/mL insulin was added to the medium to allow for VSC differentiation and maturation for 7 days. […] When dexamethasone was also added to the differentiation induction culture medium, single cell enlargement was promoted (FIG. 1B), although there was no difference in the differentiation efficiency. In addition, the norepinephrine-induced triglyceride degradation reaction was reduced (data not shown).
After 9-day culture with 200 ng/mL IGF-1 and different insulin concentrations, the culture medium was taken and the adiponectin content was measured by ELISA. When VSCs were cultured for 9 days with the constant presence of 200 ng/mL IGF-1 and insulin at a concentration of 10 μg/mL (lane 1), 70 ng/mL (lane 2), 22 ng/mL (lane 3), or 2.5 ng/mL (lane 4), the amount of adiponectin secretion was reduced at insulin concentrations of 70 ng/mL and above (FIG. 9A). When VSCs were cultured for the first 4 days with 200 ng/mL IGF-1 and 2.5 ng/mL insulin followed by 5 days with 200 ng/mL IGF-1 and insulin at a concentration of 10 μg/mL (lane 1), 70 ng/mL (lane 2), 22 ng/mL (lane 3), or 2.5 ng/mL (lane 4), adiponectin secretion was again reduced at insulin concentrations of 70 ng/mL and above (FIG. 9B). […]
In general terms: An ELISA detects its analyte on a solid surface through an enzyme-linked reagent.

Test [2] deals with C/EBPα mRNA. In words: C/EBPα mRNA expression by real-time PCR. The procedure:
(§1) Differentiation conditions 1 to 12 in FIG. 2A correspond to the 1 to 12 in FIGS. 2B, 2C, and 2D (B: photographs after culture for 7 days; C: mRNA was separated after culture for 7 days, and the level of C/EBPα mRNA expression was measured by real-time PCR (the value on day 0 of culture was set at 1); D: the level of aP2 mRNA expression was measured by real-time PCR (the value on day 7 of culture for condition 1 was set at 1)).
(§2) A continuous 7-day culture was carried out in a culture medium containing 200 ng/mL IGF-1 (normal concentration in human blood=150 to 250 ng/mL), and the amount of mRNA expression was then measured for C/EBPα (adipocyte differentiation marker), aP2 (adipocyte differentiation marker), and C/EBPβ (differentiation marker for undifferentiated adipocytes). The results are shown in FIG. 5 (A: photographs after culture for 7 days. 1: cultured with 200 ng/mL IGF-1 for 3 days and then with 22 ng/mL insulin for 4 days. 2: cultured with 200 ng/mL IGF-1 and 22 ng/mL insulin for 7 days. 3: cultured with 200 ng/mL IGF-1 for 7 days. The 1 to 3 corresponds to lanes 1 to 3 in FIGS. 5B to 5D. B: mRNA was separated after the 7-day culture and the amount of C/EBPα mRNA expression was measured by real-time PCR. The value for a culture of 3 days with 10 μg/mL insulin and then 4 days with 22 ng/mL insulin was set at 1. C: mRNA was separated after the 7-day culture and the amount of aP2 mRNA expression was measured by real-time PCR. The value for a culture of 3 days with 10 μg/mL insulin and then 4 days with 22 ng/mL insulin was set at 1. D: mRNA was separated after the 7-day culture and the amount of C/EBPβ mRNA expression was measured by real-time PCR. The value for a culture of 3 days with 10 μg/mL insulin and then 4 days with 22 ng/mL insulin was set at 1.).
Additional investigations were then carried out into the IGF-1 concentration required for differentiation. Proceeding in the same manner as described above, VSCs were cultured for 7 days in the presence of 0.85 ng/mL insulin and IGF-1 at different concentrations. After culturing, mRNA was separated and the amount of C/EBPα mRNA expression was measured by real-time PCR. After culture for 7 days, mRNA was separated and the amount of C/EBPα mRNA expression and the amount of C/EBPβ mRNA expression were measured by real-time PCR. The value for the amount of mRNA expression for culture with 10 μg/mL insulin for 3 days followed by with 22 ng/mL insulin for 4 days was set at 1.

Test [3] deals with insulin receptor. In words: Insulin receptor expression by immunoblotting with anti-IR antibody. The procedure: The amount of insulin receptor expression in the maturation process was then examined (FIG. 4). After the VSCs had been cultured for 7, 8, or 9 days, the total cell lysate (20 μg protein) was separated by SDS-PAGE and the IR was detected by immunoblotting with anti-IR antibody. In addition, actin was detected by immunoblotting with anti-actin antibody as the loading control. […] VSCs were cultured for 3 days in the presence of 10 μg/mL insulin or 200 ng/mL IGF-1, after which the total cell lysate (20 μg protein) was separated by SDS-PAGE and the insulin receptor was detected by immunoblotting with anti-insulin receptor (IR) antibody. Actin was detected by immunoblotting with anti-actin antibody as a loading control. […] After culture for 7 days, the total cell lysate (20 μg protein) was separated by SDS-PAGE and the IR was determined by immunoblotting with anti-IR antibody. Actin was detected by immunoblotting with anti-actin antibody as a loading control.

Test [4] concerns aP2 mRNA. In words: aP2 mRNA expression by real-time PCR. The protocol:
as §1, §2
The influence of various combinations of IGF-1 and insulin on VAC differentiation induction and maturation was investigated. The results are shown in FIG. 6 (A: photographs after culture for 7 days. 1: cultured with 200 ng/mL IGF-1 for 3 days and then with 2.5 ng/mL insulin for 4 days. 2: cultured with 200 ng/mL IGF-1 and 2.5 ng/mL insulin for 7 days. 3: cultured with 200 ng/mL IGF-1 for 3 days and then with 0.85 ng/mL insulin for 4 days. 4: cultured with 200 ng/mL IGF-1 and 0.85 ng/mL insulin for 7 days. B: mRNA was separated after the 7-day culture and the amount of C/EBPβ mRNA expression was measured by real-time PCR. The value for a culture of 3 days with 10 μg/mL insulin and then 4 days with 22 ng/mL insulin was set at 1. C: mRNA was separated after the 7-day culture and the amount of aP2 mRNA expression was measured by real-time PCR. The value for a culture of 3 days with 10 μg/mL insulin and then 4 days with 22 ng/mL insulin was set at 1.).

In test [5] the test system is adiponectin mRNA. The experiment in a line: Adiponectin mRNA expression by real-time PCR. The procedure:
The level of adiponectin mRNA expression was then examined with the aim of investigating the influence of the insulin concentration on VAC function (FIG. 3). After the VSCs had been differentiated by 10 μg/mL insulin for 3 days, they were then cultured for 4 days in the presence of 10 μg/mL insulin (lane 2), 0.2 μg/mL insulin (lane 3), 70 ng/mL insulin (lane 4), 22 ng/mL insulin (lane 5), or 7.4 ng/mL insulin (lane 6). After the 7-day culture, mRNA was separated and the amount of adiponectin mRNA expression was measured by real-time PCR. The value for the 7-day culture in the absence of insulin was set at 1. The results are shown in FIG. 3 (1: cultured for 7 days without insulin. 2: cultured for 7 days with 10 μg/mL insulin. 3: induction of differentiation for 3 days with 10 μg/mL insulin followed by culture for 4 days with 0.2 μg/mL insulin. 4: induction of differentiation for 3 days with 10 μg/mL insulin followed by culture for 4 days with 70 ng/mL insulin. 5: induction of differentiation for 3 days with 10 μg/mL insulin followed by culture for 4 days with 22 ng/mL insulin. 6: induction of differentiation for 3 days with 10 μg/mL insulin followed by culture for 4 days with 7.4 ng/mL insulin.).

For test [6], the system named is VSC (visceral stromal cells=preadipocytes). The experiment in a line: Induction of VSC-to-VAC differentiation (lipid droplet formation, photographs after culture).
Method: Mesenteric fat tissue was excised from the abdominal cavity of 3-5 week old male Sprague-Dawley rats (average body weight=100 g) and was washed three times with Hanks' balanced salt solution. The fat was minced with scissors and then incubated for 40 minutes at 37° C. in DMEM/F-12 culture medium containing 0.2% collagenase and 1.0% bovine albumin. The collagenase-digested tissue suspension was subsequently filtered through 600 μm mesh and Hanks' balanced salt solution was added. After centrifugation for 10 minutes at 800×g, the sediment was washed three times with Hanks' balanced salt solution and once with DMEM/F-12 culture medium and was then filtered through 100 μm mesh. The cell suspension thus prepared from the intraabdominal mesenteric fat was seeded to dishes at 0.5×10^5 cells/cm^2, and incubated at 37° C. and 5% CO2 in the culture medium with the indicated composition. The culture medium was changed once a day or once every two days. The culture medium was prepared by the addition of 17 mM pantothenic acid, 33 mM biotin, 100 mM ascorbic acid, 1 mM octanoic acid, 50 nM triiodothyronine, 100 unit/mL penicillin, and 100 mg/mL streptomycin to a basal culture medium of (DMEM)/F12 containing 10% NCS. Insulin and IGF-1 were added in the specified concentrations, and the resulting culture medium was used in the experiments described below.
In test [7] the test system is C/EBPβ mRNA. The experiment in a line: C/EBPβ mRNA expression by real-time PCR. The procedure: as §2, with “real-time PCR. […] D: mRNA” for “real-time PCR. The value for a culture of 3 days with 10 μg/mL insulin and then 4 days with 22 ng/mL insulin was set at 1. D: mRNA”, “real-time PCR. […]” for “real-time PCR. The value for a culture of 3 days with 10 μg/mL insulin and then 4 days with 22 ng/mL insulin was set at 1.).”
The influence of various combinations of IGF-1 and insulin on VAC differentiation induction and maturation was investigated. […] C: mRNA was separated after the 7-day culture and the amount of aP2 mRNA expression was measured by real-time PCR. […]

Where [8] appears, read: 7-day culture with only IGF-1 (200 ng/mL), vs 10 μg/mL insulin then 22 ng/mL insulin.

As for insulin, the adiponectin secretion result in test [1] (4 days 200 ng/mL IGF-1 and 2.5 ng/mL insulin, then 5 days 200 ng/mL IGF-1 and insulin at 70 ng/mL and above) is “again reduced”. For the same substance, the “amount of adiponectin secretion” value in test [1] (9 days, constant 200 ng/mL IGF-1 and insulin at 70 ng/mL and above (vs 22 or 2.5 ng/mL)) is listed as “reduced”. Further, the “C/EBPα mRNA expression level” value in test [2] (10 μg/mL insulin for 2 days (conditions 4 and 5), 7 days) is “did not increase”; in test [2] (10 μg/mL insulin for only 3 days followed by absence of insulin for 4 days (condition 6)), “did rise”; in test [2] (constant presence of 0.2 μg/mL insulin (condition 3), 7 days), “did not increase”. Besides, the “amount of insulin receptor expression” value in test [3] (3-day induction with 10 μg/mL insulin vs 200 ng/mL IGF-1 or 200 ng/mL IGF-1 and 22 ng/mL insulin) was “decline”. For the same substance, the insulin receptor expression result in test [3] (3 days 10 μg/mL insulin, maturation with 22 ng/mL, then culture with insulin at 70 ng/mL or greater vs 22 ng/mL, 7, 8 or 9 days) is reported as “substantial decline”. The “aP2 mRNA expression level” value in test [4] (10 μg/mL insulin for 3 days, then at least 22 ng/mL insulin (condition 11), vs constant 10 μg/mL insulin) is “the same level”; in test [4] (10 μg/mL insulin for 3 days, then insulin at or below 7.4 ng/mL (condition 12), vs constant 10 μg/mL insulin), “less aP2 expression”; in test [4] (10 μg/mL insulin for only 2 days (condition 5), vs constant 10 μg/mL insulin), “less aP2 expression”; in test [4] (constant presence of 0.2 μg/mL insulin, vs constant 10 μg/mL insulin (condition 2)) it was “less aP2 expression”. The “level of adiponectin mRNA expression” value in test [5] (10 μg/mL insulin for 3 days then 4 days 7.4 ng/mL insulin (lane 6)) is on record as “reduced”; in test [5] (7-day culture with 10 μg/mL insulin (lane 2) vs 3 days 10 μg/mL then 4 days 0.2 μg/mL to 22 ng/mL (lanes 3 to 5)) it was “lower level”. For the same substance, the lipid droplet formation result in test [6] (0.2 μg/mL insulin, 7 days (condition 3)) is “entirely absent”; in test [6] (10 μg/mL insulin for 3 days, then insulin reduced to 22 ng/mL (condition 11)) it was “same level”. Also, the lipid droplet accumulation entry in test [6] (10 μg/mL insulin for 2 days followed by 0.2 μg/mL insulin, total of 7 days (condition 5)) is “significant decline”; in test [6] (3-day treatment with 10 μg/mL insulin without the ensuing 0.2 μg/mL insulin, vs system containing 0.2 μg/mL insulin) it was “significant decline”. Further, the “differentiation into adipocytes (lipid droplets)” value in test [6] (10 μg/mL insulin, 7 days (condition 2)) is on record as “differentiation into adipocytes occurred”. Moreover, in test [6] (10 μg/mL insulin, VSC differentiation and maturation for 7 days), the fat accumulation result is on record as “normal fat accumulation”.
As for insulin-like growth factor-1 [IGF-1], in test [2] (setting [8]), the “expression of C/EBPα mRNA” value is recorded as “increased”. The “amount of C/EBPα mRNA expression” value in test [2] (as a function of the IGF-1 concentration (10 to 800 ng/mL) plus 0.85 ng/mL insulin, 7 days) is recorded as “no changes”. The “amount of C/EBPβ mRNA” value in test [7] (7-day culture with IGF-1 alone (200 ng/mL; FIG. 5D, lane 3)) is “maintained”. In test [7] (IGF-1 concentrations of 50 ng/mL or less vs 200 ng/mL IGF-1, plus 0.85 ng/mL insulin, 7 days), the “amount of C/EBPβ mRNA expression” value is “increased amounts of expression”. Besides, in test [4] (setting [8]), the “expression of aP2 mRNA” value was “increased”. Besides, the “accumulation of lipid droplets” value in test [6] (200 ng/mL IGF-1 alone, 7 days) is “not seen”. Besides, the differentiation efficiency result in test [6] (IGF-1 concentrations of 50 ng/mL and below, plus 0.85 ng/mL insulin, 7 days) is given as “decline”.
